According to US20230061736A1, “GPR119 AGONISTS” (Kallyope, Inc., priority 2019, published 2023):

Biological target: T1, human GPR119 (hGPR119) (Homo sapiens, UniProt Q8TDV5)
T1 construct: expressed in transfected cells
T1 sequence (Q8TDV5 1-335): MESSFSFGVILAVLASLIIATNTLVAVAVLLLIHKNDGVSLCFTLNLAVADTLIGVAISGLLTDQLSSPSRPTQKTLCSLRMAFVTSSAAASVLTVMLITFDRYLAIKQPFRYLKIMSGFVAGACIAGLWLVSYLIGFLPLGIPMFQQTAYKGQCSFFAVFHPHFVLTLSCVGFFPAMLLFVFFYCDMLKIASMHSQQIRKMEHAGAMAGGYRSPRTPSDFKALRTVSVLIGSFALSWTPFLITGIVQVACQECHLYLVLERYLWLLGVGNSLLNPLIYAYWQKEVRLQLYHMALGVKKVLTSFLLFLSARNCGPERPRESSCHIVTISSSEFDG
Experiment: cAMP accumulation assay (cAMP Gs dynamic HTRF kit)
Type: cell-based
Conditions: CHO-K1 cells stably expressing hGPR119, 4-parameter fit; for Emax: 1 h, % activity normalized to Max/Min controls; for EC50: cAMP accumulation
Method: CHO-K1 cells stably expressing human GPR119 (hGPR119) were prepared by transfection of a GPR119-carrying plasmid using Lipofectamine 2000 (following manufacturer instructions). A stable cell line was established using the limiting dilution method with geneticine selection. Assay-ready frozen (ARF) cells were prepared and used throughout the study.
The assay was performed in a 384-well plate format using the cAMP Gs dynamic assay kit from Cisbio. ARF cells expressing hGPR119 were thawed, washed and then resuspended in cAMP stimulation buffer at a cell density of 1.1×10^6 cells/mL. Cells were plated at a density of ˜10,000 cells/well (9 μL/well). Dose response curves for the tested compounds were prepared in a cAMP stimulation buffer, containing 0.1% Tween 80 at 4 fold the final concentration. The compounds were then transferred to the cell plates using BRAVO (3 μL/well) and the plates were incubated for 60 minutes at 37° C./5% CO2. Detection buffer (10 μL, prepared as described in the cAMP Gs dynamic kit) were added to each well, and the plates were incubated at ambient temperature for 1 hr.
RT-FRET was measured using a ClarioSTAR plate reader, calculating the ratio between emissions at 665 nm and 620 nm (HTRF ratio). The HTRF ratio for positive (Max) and negative (Min) controls were used to normalize HTRF data and generate values for % activity. EC50 and Max activity values were determined using a standard 4-parameter fit.

Emax [%]	EC50 [nM]	Compound
100 to 130	≤ 100	O=C(Cc1ccc(OCCCC2CCN(c3ncc(Cl)cn3)CC2)cc1F)N1CC(CCNCC(CO)CO)C1 [Example 57, 2-(4-(3-(1-(5-chloropyrimidin-2-yl)piperidin-4-yl)propoxy)-2-fluorophenyl)-1-(3-(2-((3-hydroxy-2-(hydroxymethyl)propyl)amino)ethyl)azetidin-1-yl)ethan-1-one]
≥ 130	100 to 1000	O=C(Cc1ccc(OCCCC2CCN(c3ncc(Cl)cn3)CC2)cc1F)N1CC(CN[C@@H]2C[C@H](O)[C@@H](O)[C@H]2O)C1 (racemic) [Example 49, 2-[4-[3-[1-(5-chloropyrimidin-2-yl)-4-piperidyl]propoxy]-2-fluoro-phenyl]-1-[3-[[[rac-(1R,2S,3R,4S)-2,3,4-trihydroxycyclopentyl]amino]methyl]azetidin-1-yl]ethanone]
100 to 130	≤ 100	O=C(CC1(O)CN(C(=O)Cc2ccc(OCCCC3CCN(c4ncc(Cl)cn4)CC3)cc2F)C1)NCC(CO)(CO)CO [Example 184, 2-[1-[2-[4-[3-[1-(5-chloropyrimidin-2-yl)-4-piperidyl]propoxy]-2-fluoro-phenyl]acetyl]-3-hydroxy-azetidin-3-yl]-N-[3-hydroxy-2,2-bis(hydroxymethyl)propyl]acetamide]
100 to 130	100 to 1000	O=C(Cc1c(F)cc(OCCC2CCC23CCN(c2ncc(Cl)cn2)CC3)cc1F)N1CC(CNC[C@H](O)[C@@H](O)[C@H](O)[C@H](O)CO)C1 (stereo partly drawn) [Example 139, 2-[4-[2-[7-(5-chloropyrimidin-2-yl)-7-azaspiro[3.5]nonan-3-yl]ethoxy]-2,6-difluoro-phenyl]-1-[3-[[[(2S,3R,4R,5R)-2,3,4,5,6-pentahydroxyhexyl]amino]methyl]azetidin-1-yl]ethanone]
100 to 130	≤ 100	CCOc1cnc(N2CCC(CCCOc3ccc(CC(=O)N4CC(CC(=O)NCC(O)(CO)CO)C4)c(F)c3)CC2)nc1 [Example 108, N-[2,3-dihydroxy-2-(hydroxymethyl)propyl]-2-[1-[2-[4-[3-[1-(5-ethoxypyrimidin-2-yl)-4-piperidyl]propoxy]-2-fluoro-phenyl]acetyl]azetidin-3-yl]acetamide]
100 to 130	1000 to 10000	O=C(Cc1ccc(OCCCC2CCC23CCN(c2ncc(Cl)cn2)CC3)cc1F)N1CC(CNC[C@H](O)[C@@H](O)[C@H](O)[C@H](O)CO)C1 (stereo partly drawn) [Example 144, 2-[4-[3-[7-(5-chloropyrimidin-2-yl)-7-azaspiro[3.5]nonan-3-yl]propoxy]-2-fluoro-phenyl]-1-[3-[[[(2S,3R,4R,5R)-2,3,4,5,6-pentahydroxyhexyl]amino]methyl]azetidin-1-yl]ethanone]
100 to 130	≤ 100	COCc1cnc(N2CCC([C@H]3C[C@H]3CCOc3ccc(CC(=O)N4CC[C@@H](CNCC(O)(CO)CO)C4)c(F)c3)CC2)nc1 [Example 162, 2-[2-fluoro-4-[2-[(1S,2R)-2-[1-[5-(methoxymethyl)pyrimidin-2-yl]-4-piperidyl]cyclopropyl]ethoxy]phenyl]-1-[(3S)-3-[[[2,3-dihydroxy-2-(hydroxymethyl)propyl]amino]methyl]pyrrolidin-1-yl]ethanone]
100 to 130	≤ 100	O=C(Cc1ccc(OCCCC2CCN(c3ncc(Cl)cn3)CC2)cc1F)N1CCC(O)(C(=O)NCC(CO)(CO)CO)C1 (centres unmarked) [Example 182, 1-[2-[4-[3-[1-(5-chloropyrimidin-2-yl)-4-piperidyl]propoxy]-2-fluoro-phenyl]acetyl]-3-hydroxy-N-[3-hydroxy-2,2-bis (hydroxymethyl)propyl]pyrrolidine-3-carboxamide]
100 to 130	≤ 100	CCc1cnc(N2CCC(CCCOc3ccc(CC(=O)N4CC(CNCCNC(=O)NC(CO)(CO)CO)C4)c(F)c3)CC2)nc1 [Example 65, 1-(1,3-dihydroxy-2-(hydroxymethyl)propan-2-yl)-3-(2-(((1-(2-(4-(3-(1-(5-ethylpyrimidin-2-yl)piperidin-4-yl)propoxy)-2-fluorophenyl)acetyl)azetidin-3-yl)methyl)amino)ethyl)urea]
100 to 130	≤ 100	O=C(NC(CO)(CO)CO)[C@H]1CCN(C(=O)Cc2ccc(OCCCC3CCN(c4ncc(Cl)cn4)CC3)cc2F)C1 [Example 103, (3S)-1-[2-[4-[3-[1-(5-chloropyrimidin-2-yl)-4-piperidyl]propoxy]-2-fluoro-phenyl]acetyl]-N-[2-hydroxy-1,1-bis(hydroxymethyl)ethyl]pyrrolidine-3-carboxamide]
100 to 130	100 to 1000	COc1cnc(N2CCC(CCCOc3ccc(CC(=O)N4CC(CNC[C@H](O)[C@@H](O)[C@H](O)[C@H](O)CO)C4)c(F)c3)CC2)nc1 (racemic) [Example 79, 2-[2-fluoro-4-[3-[1-(5-methoxypyrimidin-2-yl)-4-piperidyl]propoxy]phenyl]-1-[3-[[[rac-(2S,3R,4R,5R)-2,3,4,5,6-pentahydroxyhexyl]amino]methyl]azetidin-1-yl]ethanone]
≥ 130	≤ 100	O=C(Cc1ccc(OCCCC2CCN(c3ncc(Cl)cn3)CC2)cc1F)N1CCC(O)(CNC[C@H](O)[C@H](O)[C@H](O)CO)C1 (stereo partly drawn) [Example 186, 2-[4-[3-[1-(5-chloropyrimidin-2-yl)-4-piperidyl]propoxy]-2-fluoro-phenyl]-1-[3-hydroxy-3-[[[(2S,3S,4R)-2,3,4,5-tetrahydroxypentyl]amino]methyl]pyrrolidin-1-yl]ethanone]
≥ 130	100 to 1000	O=C(Cc1ccc(OCCCC2CCN(c3ncc(Cl)cn3)CC2)cc1F)N1CC(CCNCC(O)(CO)CO)C1 [Example 58, 2-(4-(3-(1-(5-chloropyrimidin-2-yl)piperidin-4-yl)propoxy)-2-fluorophenyl)-1-(3-(2-((2,3-dihydroxy-2-(hydroxymethyl)propyl)amino)ethyl)azetidin-1-yl)ethan-1-one]
100 to 130	100 to 1000	COCc1cnc(N2CCC(CCCOc3ccc(CC(=O)N4CC(C(=O)NC[C@H](O)[C@@H](O)[C@H](O)[C@H](O)CO)C4)c(F)c3)CC2)nc1 (racemic) [Example 39, 1-[2-[2-fluoro-4-[3-[1-[5-(methoxymethyl)pyrimidin-2-yl]-4-piperidyl]propoxy]phenyl]acetyl]-N-[rac-(2S,3R,4R,5R)-2,3,4,5,6-pentahydroxyhexyl]azetidine-3-carboxamide]
≥ 130	≤ 100	CCc1cnc(N2CCC(CCCOc3ccc(CC(=O)N4CC(CNCC(O)(CO)CO)C4)c(F)c3)CC2)nc1 [Example 63, 1-(3-(((2,3-dihydroxy-2-(hydroxymethyl)propyl)amino)methyl)azetidin-1-yl)-2-(4-(3-(1-(5-ethylpyrimidin-2-yl)piperidin-4-yl)propoxy)-2-fluorophenyl)ethan-1-one]
100 to 130	≤ 100	CCCc1cnc(N2CCC(CCCOc3cc(F)c(CC(=O)NC(CO)(CO)CO)c(F)c3)CC2)nc1 [Example 8, 2-[2,6-difluoro-4-[3-[1-(5-propylpyrimidin-2-yl)-4-piperidyl]propoxy]phenyl]-N-[2-hydroxy-1,1-bis(hydroxymethyl)ethyl]acetamide]
≥ 130	≤ 100	O=C(NC[C@H](O)[C@@H](O)[C@H](O)[C@H](O)CO)[C@H]1CCN(C(=O)Cc2ccc(OCCCC3CCN(c4ncc(Cl)cn4)CC3)cc2F)C1 [Example 127, (3S)-1-[2-[4-[3-[1-(5-chloropyrimidin-2-yl)-4-piperidyl]propoxy]-2-fluoro-phenyl]acetyl]-N-[(2S,3R,4R,5R)-2,3,4,5,6-pentahydroxyhexyl]pyrrolidine-3-carboxamide]

Compound	Emax [%]	EC50 [nM]
COCc1cnc(N2CCC(CCCCOc3cc(F)c(CC(=O)N4CC(CNC[C@H](O)[C@@H](O)[C@H](O)[C@H](O)CO)C4)c(F)c3)CC2)nc1 (racemic) [Example 85, 2-[2,6-difluoro-4-[4-[1-[5-(methoxymethyl)pyrimidin-2-yl]-4-piperidyl]butoxy]phenyl]-1-[3-[[[rac-(2S,3R,4R,5R)-2,3,4,5,6-pentahydroxyhexyl]amino]methyl]azetidin-1-yl]ethanone]	100 to 130	100 to 1000
COCc1cnc(N2CCC(CCCCOc3ccc(CC(=O)N4CC(CNC[C@H](O)[C@@H](O)[C@H](O)[C@H](O)CO)C4)c(F)c3)CC2)nc1 (racemic) [Example 84, 2-[2-fluoro-4-[4-[1-[5-(methoxymethyl)pyrimidin-2-yl]-4-piperidyl]butoxy]phenyl]-1-[3-[[[rac-(2S,3R,4R,5R)-2,3,4,5,6-pentahydroxyhexyl]amino]methyl]azetidin-1-yl]ethanone]	100 to 130	100 to 1000
